Test results as given in patent US6339149B1, “Isolated nucleic acid molecules which encode tumor rejection antigens found in dage” (Ludwig Institute for Cancer Research, priority 1994, dated 2002).

Tested on: C1R-A24 cells
Test: 51Cr release assay: peptide sensitization of C1R-A24 cells to lysis by anti LB33-E CTLs
Format: cell-based, human
Settings: 51Cr labeled C1R-A24 cells incubated 30 minutes with peptide, E/T ratio 10:1, chromium release after 4 hours
Method: The lysis assay employed was a chromium release assay following Herin et al., Int. J. Cancer 39:390-396 (1987), the disclosure of which is incorporated by reference. The assay, however, is described herein. The target melanoma cells were grown in vitro. Prior to labelling, these cells were incubated for 48 hours, in the presence of 50 U/ml of IFN-γ to increase the expression of HLA Class I molecules. The cells were then resuspended at 10^7 cells/ml in DMEM, supplemented with 10 mM HEPES and 30% FCS (i.e. fetal calf serum), and incubated for 45 minutes at 37° C. with 200 μCi/ml of Na(^51Cr)O4. Labelled cells were washed three times with DMEM, supplemented with 10 mM Hepes. These were then resuspended in DMEM supplemented with 10 mM Hepes and 10% FCS, after which 100 ul aliquots containing 10^3 cells, were distributed into 96 well microplates. PBL containing samples were added in 100 ul of the same medium, and assays were carried out in duplicate. Plates were centrifuged for 4 minutes at 100 g, and incubated for four hours at 37° C. in a 5.5% CO2 atmosphere.
Plates were centrifuged again, and 100 ul aliquots of supernatant were collected and counted. Percentage of ^51Cr release was calculated as follows: [formula]
where ER is observed, experimental ^51Cr release, SR is spontaneous release measured by incubating 10^3 labeled cells in 200 ul of medium alone, and MR is maximum release, obtained by adding 100 ul 0.3% Triton X-100® to target cells.
Four sequences in this region which (i) were 9 or 10 amino acids long, (ii) had Tyr or Phe at position 2, and (iii) had one of Phe, Leu, Ile, or Trp at C-terminus were possible. This is the motif for HLA-A24 binding described by Kubo, et al, J. Immunol 152:3913 (1994); Meier, et al, Immunogenetics 40:306-308 (1994). These were synthesized, and incubated with cells of MHC class I negative B-cell lympoblastoid line C1R, which had been transfected with the HLA-A24 cDNA clone described supra. One peptide:
Comparative experiments were carried out, wherein peptides containing one additional N- or C-terminal amino acid, and where the C-terminal Leu was deleted, were used. […] Peptides used extended SEQ ID NO:5 at the N-terminues with Ala (SEQ ID NO:6), and by deleting the C-terminal Leu (SEQ ID NO:7). […] In these experiments, ^51Cr labeled C1R-A24 cells were incubated for 30 minutes in the presence of indicated peptide concentrations CTLs were added at E/T ratios of 10:1, and chromium release was measured after 4 hours.

| Substance | EC50 (read-out: half maximal effect in sensitizing transfected C1R-A24 cells to lysis by anti LB33-E CTLs) | sensitization of C1R-A24 cells to lysis, compared with SEQ ID NO:5 |
| --- | --- | --- |
| LYVDSLFFL [SEQ ID NO. 5, Leu Tyr Val Asp Ser Leu Phe Phe Leu] | 500 nM | – |
| SEQ ID NO:6: Peptide that extends SEQ ID NO:5 at the N-terminus with Ala (ALYVDSLFFL) | – | sensitized the cells to lysis, although to a lesser degree than SEQ ID NO:5 |
| SEQ ID NO:8: Peptide of SEQ ID NO:5 with Arg added to the C terminus (LYVDSLFFLR) | – | much less sensitive in sensitizing the cells |
| SEQ ID NO:7: Peptide of SEQ ID NO:5 with the C-terminal Leu deleted (LYVDSLFF) | – | much less sensitive in sensitizing the cells |
